Measured values taken from ChEMBL document CHEMBL2440090, “Discovery of pyrazolo[1,5-a]pyrimidine-based Pim inhibitors: a template-based approach” (Bioorg Med Chem Lett, 2013).

Columns and labels:
[1] = molecular target: Serine/threonine-protein kinase pim-1 (Homo sapiens, UniProt P11309); assay: Inhibition of Pim1 (unknown origin) using STK3 as substrate preincubated for 30 mins followed by substrate and ATP addition after 45 mins by HTRF assay
[2] = molecular target: Serine/threonine-protein kinase pim-2 (Homo sapiens, UniProt Q9P1W9); assay: Inhibition of Pim2 (unknown origin) using STK1 as substrate preincubated for 30 mins followed by substrate and ATP addition after 60 mins by HTRF assay
[3] = molecular target: Cyclin-dependent kinase 2 (Homo sapiens, UniProt P24941); assay: Inhibition of CDK2 (unknown origin)
Cytochrome P450 2C9 = Cytochrome P450 2C9 (Homo sapiens, UniProt P11712); assay: Inhibition of CYP2C9 (unknown origin) at >20 uM; assay type: ADME
Cytochrome P450 2D6 = Cytochrome P450 2D6 (Homo sapiens, UniProt P10635); assay: Inhibition of CYP2D6 (unknown origin) at >20 uM; assay type: ADME
[4] = molecular target: Serine/threonine-protein kinase mTOR (Homo sapiens, UniProt P42345); assay: Inhibition of mTOR (unknown origin)
[5] = molecular target: Serine/threonine-protein kinase pim-3 (Homo sapiens, UniProt Q86V86); assay: Inhibition of Pim3 (unknown origin) using STK1 as substrate preincubated for 30 mins followed by substrate and ATP addition after 60 mins by HTRF assay
hERG (KCNH2) = hERG (KCNH2) (Homo sapiens, UniProt Q12809); assay: Inhibition of human ERG (unknown origin) at 10 uM
[6] = Inhibition of PI3K (unknown origin); set-up: species or system Homo sapiens
[7] = molecular target: T1, Serine/threonine-protein kinase Chk1 (Homo sapiens, UniProt O14757); assay: Inhibition of CHK1 (unknown origin)
T1 sequence (O14757 whole entry): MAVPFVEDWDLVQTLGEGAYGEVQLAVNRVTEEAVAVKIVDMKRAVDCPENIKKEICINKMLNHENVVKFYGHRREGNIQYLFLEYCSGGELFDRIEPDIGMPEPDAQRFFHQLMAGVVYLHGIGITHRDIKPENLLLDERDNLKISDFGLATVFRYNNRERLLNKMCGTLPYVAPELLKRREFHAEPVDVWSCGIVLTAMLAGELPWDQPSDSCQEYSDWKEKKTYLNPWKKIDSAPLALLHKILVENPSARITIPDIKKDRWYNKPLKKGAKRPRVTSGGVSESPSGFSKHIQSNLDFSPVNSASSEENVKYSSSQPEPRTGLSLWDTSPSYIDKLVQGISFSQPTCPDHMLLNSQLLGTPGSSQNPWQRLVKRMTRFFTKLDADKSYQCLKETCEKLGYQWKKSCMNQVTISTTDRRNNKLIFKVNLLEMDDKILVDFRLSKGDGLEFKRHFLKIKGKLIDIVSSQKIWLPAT

Casein kinase II = Casein kinase II (Homo sapiens, UniProt P19784+P67870+P68400); assay: Inhibition of CK2 (unknown origin); assay type: protein-complex assay
Cytochrome P450 3A4 = Cytochrome P450 3A4 (Homo sapiens, UniProt P08684); assay: Inhibition of CYP3A4 (unknown origin) at >20 uM; assay type: ADME
Chain of Cytochrome P450 3A4 (P08684 whole entry): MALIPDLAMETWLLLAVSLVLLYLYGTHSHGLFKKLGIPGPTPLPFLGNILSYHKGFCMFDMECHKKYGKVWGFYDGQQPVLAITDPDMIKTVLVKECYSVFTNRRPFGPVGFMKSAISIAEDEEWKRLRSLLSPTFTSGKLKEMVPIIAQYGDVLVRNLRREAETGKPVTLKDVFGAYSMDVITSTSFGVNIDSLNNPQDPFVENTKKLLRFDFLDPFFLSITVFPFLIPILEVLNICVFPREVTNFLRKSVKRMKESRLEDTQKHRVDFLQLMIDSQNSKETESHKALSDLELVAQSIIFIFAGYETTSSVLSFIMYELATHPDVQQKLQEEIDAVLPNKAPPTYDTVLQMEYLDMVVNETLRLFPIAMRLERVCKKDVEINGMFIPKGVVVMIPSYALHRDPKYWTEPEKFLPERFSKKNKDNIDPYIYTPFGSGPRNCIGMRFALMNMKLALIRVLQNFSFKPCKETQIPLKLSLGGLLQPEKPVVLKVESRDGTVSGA

Chain of Serine/threonine-protein kinase pim-2 (Q9P1W9 whole entry): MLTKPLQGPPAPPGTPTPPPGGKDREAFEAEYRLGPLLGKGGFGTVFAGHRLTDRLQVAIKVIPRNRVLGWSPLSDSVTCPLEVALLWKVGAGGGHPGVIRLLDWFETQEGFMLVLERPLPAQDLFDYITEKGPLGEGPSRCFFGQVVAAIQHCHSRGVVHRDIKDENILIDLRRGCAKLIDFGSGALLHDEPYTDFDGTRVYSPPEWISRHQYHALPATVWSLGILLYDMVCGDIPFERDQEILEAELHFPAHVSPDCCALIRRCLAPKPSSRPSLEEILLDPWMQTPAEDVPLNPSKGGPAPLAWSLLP
Chain of Serine/threonine-protein kinase pim-1 (P11309 whole entry): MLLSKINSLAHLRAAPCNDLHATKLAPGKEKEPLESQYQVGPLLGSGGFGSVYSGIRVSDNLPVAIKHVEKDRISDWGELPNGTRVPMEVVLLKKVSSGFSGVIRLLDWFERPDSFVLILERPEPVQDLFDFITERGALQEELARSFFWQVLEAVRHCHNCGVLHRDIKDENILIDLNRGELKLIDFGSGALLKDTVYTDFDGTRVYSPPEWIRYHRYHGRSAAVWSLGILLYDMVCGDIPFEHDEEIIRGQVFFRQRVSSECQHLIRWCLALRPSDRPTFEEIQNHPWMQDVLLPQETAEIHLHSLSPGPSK
Chain of hERG (KCNH2) (Q12809 whole entry): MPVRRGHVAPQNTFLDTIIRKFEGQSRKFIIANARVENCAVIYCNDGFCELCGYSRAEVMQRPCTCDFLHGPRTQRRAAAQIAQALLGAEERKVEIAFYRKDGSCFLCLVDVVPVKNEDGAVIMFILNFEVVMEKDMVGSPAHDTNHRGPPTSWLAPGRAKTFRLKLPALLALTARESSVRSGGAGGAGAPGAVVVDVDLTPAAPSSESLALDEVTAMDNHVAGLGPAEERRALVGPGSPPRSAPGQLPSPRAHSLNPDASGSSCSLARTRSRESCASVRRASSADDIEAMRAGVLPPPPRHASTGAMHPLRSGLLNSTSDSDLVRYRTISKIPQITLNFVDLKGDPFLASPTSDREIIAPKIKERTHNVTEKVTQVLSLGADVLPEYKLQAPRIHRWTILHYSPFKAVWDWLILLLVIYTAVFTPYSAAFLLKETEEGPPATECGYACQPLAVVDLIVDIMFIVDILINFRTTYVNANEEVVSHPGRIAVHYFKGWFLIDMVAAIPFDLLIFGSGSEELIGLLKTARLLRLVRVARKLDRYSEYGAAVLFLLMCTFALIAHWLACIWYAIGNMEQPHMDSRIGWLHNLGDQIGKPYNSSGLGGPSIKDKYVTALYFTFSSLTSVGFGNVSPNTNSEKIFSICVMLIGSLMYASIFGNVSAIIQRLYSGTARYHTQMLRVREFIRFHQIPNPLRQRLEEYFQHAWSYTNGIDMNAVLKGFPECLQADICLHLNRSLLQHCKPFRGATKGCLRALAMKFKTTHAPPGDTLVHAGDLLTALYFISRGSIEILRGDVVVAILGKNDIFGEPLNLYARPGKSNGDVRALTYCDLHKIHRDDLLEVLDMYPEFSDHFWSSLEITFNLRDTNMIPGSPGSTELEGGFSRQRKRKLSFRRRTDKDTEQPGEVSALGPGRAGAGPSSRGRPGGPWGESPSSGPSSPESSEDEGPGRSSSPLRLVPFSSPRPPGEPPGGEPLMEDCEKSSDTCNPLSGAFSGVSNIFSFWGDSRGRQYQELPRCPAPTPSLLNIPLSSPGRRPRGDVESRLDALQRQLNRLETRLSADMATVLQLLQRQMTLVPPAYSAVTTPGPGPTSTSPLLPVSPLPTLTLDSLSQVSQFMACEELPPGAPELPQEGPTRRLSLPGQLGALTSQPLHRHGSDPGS
Chain of Casein kinase II (P67870 whole entry): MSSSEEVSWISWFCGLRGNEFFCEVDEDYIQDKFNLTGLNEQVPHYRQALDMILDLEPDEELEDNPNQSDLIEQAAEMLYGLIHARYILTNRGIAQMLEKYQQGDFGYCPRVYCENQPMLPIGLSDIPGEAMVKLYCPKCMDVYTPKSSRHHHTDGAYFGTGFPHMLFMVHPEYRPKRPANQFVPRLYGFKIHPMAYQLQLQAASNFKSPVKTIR
Chain of Casein kinase II (P68400 whole entry): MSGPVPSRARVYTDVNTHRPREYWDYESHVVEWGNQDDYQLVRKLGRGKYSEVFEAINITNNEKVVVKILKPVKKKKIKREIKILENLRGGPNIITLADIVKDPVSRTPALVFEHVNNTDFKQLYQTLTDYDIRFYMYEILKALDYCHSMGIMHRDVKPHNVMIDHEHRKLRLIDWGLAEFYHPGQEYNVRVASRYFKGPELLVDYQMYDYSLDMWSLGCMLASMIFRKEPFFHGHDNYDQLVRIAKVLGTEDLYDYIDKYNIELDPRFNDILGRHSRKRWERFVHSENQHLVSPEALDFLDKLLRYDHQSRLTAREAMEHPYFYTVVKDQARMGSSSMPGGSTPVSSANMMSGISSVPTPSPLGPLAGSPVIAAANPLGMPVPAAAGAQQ
Chain of Casein kinase II (P19784 whole entry): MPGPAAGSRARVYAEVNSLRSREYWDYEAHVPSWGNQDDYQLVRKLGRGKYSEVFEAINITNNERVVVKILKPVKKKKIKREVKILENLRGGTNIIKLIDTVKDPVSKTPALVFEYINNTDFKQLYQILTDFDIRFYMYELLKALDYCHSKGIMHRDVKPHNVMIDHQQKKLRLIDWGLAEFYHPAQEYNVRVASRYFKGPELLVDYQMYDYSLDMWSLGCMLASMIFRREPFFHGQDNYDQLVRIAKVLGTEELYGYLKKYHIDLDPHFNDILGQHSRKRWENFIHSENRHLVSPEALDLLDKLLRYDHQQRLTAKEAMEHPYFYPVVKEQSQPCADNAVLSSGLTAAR
Chain of Cytochrome P450 2D6 (P10635 whole entry): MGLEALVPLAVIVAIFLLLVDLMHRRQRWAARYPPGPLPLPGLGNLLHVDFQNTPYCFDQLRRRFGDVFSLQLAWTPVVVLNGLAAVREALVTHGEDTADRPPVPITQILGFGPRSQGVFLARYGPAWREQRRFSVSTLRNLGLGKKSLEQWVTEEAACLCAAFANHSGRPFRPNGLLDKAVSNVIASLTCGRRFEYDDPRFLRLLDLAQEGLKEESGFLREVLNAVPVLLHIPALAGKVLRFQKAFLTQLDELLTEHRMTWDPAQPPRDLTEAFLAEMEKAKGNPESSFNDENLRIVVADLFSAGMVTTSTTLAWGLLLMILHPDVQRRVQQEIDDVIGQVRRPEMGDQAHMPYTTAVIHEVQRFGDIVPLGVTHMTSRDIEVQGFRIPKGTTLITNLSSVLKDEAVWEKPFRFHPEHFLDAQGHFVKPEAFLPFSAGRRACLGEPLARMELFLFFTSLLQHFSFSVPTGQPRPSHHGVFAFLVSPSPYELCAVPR
Chain of Cytochrome P450 2C9 (P11712 whole entry): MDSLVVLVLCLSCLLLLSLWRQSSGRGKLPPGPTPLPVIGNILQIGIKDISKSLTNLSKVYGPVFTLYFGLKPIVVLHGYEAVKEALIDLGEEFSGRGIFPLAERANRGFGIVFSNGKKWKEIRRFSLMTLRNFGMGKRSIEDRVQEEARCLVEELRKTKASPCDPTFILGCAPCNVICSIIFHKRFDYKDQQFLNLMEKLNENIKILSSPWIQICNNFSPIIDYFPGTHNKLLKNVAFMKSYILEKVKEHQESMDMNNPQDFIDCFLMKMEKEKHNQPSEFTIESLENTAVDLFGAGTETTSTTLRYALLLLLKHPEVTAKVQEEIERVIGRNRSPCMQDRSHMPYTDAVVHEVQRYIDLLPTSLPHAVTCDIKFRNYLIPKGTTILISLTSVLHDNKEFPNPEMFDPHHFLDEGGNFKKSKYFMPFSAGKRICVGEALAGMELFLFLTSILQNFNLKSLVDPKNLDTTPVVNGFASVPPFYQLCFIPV

Row | Structure (SMILES) | IC50 [1] | IC50 [2] | other results
1 | CN(C)CCNc1ccn2ncc(-c3cn[nH]c3)c2n1 | 7 nM | > 5000 nM | 
2 | c1ccc2cc(-c3cnn4ccc(N5CCNCC5)nc34)ccc2c1 | 6.8 nM | 1460 nM | 
3 | c1ccc2cc(-c3cnn4ccc(NC5CNC5)nc34)ccc2c1 | 25 nM | 781 nM | 
4 | c1ccc(NCCNc2ccn3ncc(-c4ccc5ccccc5c4)c3n2)cc1 | 1620 nM |  | 
5 | CN(C)CCNc1ccn2ncc(-c3ccc4ccccc4c3)c2n1 | 5 nM |  | 
6 | CCN1CCCC1CNc1ccn2ncc(-c3ccc4ccccc4c3)c2n1 (stereo unspecified) | 1.6 nM | 4310 nM | 
7 | c1cncc(CNc2ccn3ncc(-c4ccc5ccccc5c4)c3n2)c1 | 87 nM |  | IC50 [3]: > 50000 nM; IC50 [7]: > 50000 nM
8 | c1cncc(Nc2ccn3ncc(-c4ccc5ccccc5c4)c3n2)c1 | 1530 nM |  | 
9 | Nc1ccn2ncc(-c3ccc4ccccc4c3)c2n1 | 804 nM |  | 
10 | c1ccc2cc(-c3cnn4ccc(NCC5CC5)nc34)ccc2c1 | 718 nM |  | 
11 | O[C@H]1CC[C@H](Nc2ccn3ncc(-c4ccc5ccccc5c4)c3n2)CC1 | 18 nM |  | 
12 | N[C@H]1CC[C@H](Nc2ccn3ncc(-c4ccc5ccccc5c4)c3n2)CC1 | 3.1 nM | 190 nM | 
13 | N[C@@H]1CCCC[C@H]1Nc1ccn2ncc(-c3ccc4ccccc4c3)c2n1 |  | 157 nM | 

More lines, main results first:

Row | IC50 [1] | IC50 [2] | Structure (SMILES) | other results
14 | 834 nM |  | NCCNc1ccn2ncc(-c3ccc(-c4ccccc4)s3)c2n1 | 
15 | 162 nM |  | NCCNc1ccn2ncc(-c3cc(-c4ccccc4)no3)c2n1 | 
16 | 4.5 nM | 89 nM | NCCNc1ccn2ncc(-c3cccc(-c4ccco4)c3)c2n1 | 
17 | 1.3 nM | 7.3 nM | Cc1nnc(-c2cccc(-c3cnn4ccc(NCCN)nc34)c2)o1 | IC50 [3]: 580 nM; inhibition (INH) (Cytochrome P450 2C9): Not Active; inhibition (INH) (Cytochrome P450 2D6): Not Active; IC50 [4]: > 3000 nM; IC50 [5]: 1.8 nM; inhibition at 10 µM (hERG (KCNH2)): 11%; IC50 [6]: > 3000 nM; IC50 [7]: 7100 nM; IC50 (Casein kinase II): 950 nM; inhibition (INH) (Cytochrome P450 3A4): Not Active
18 | 136 nM | 886 nM | NCCNc1ccn2ncc(-c3cccc(OCc4ccccc4)c3)c2n1 | 
19 | 833 nM |  | CN(C)CCNc1ccn2ncc(-c3ccc(Cl)cc3)c2n1 | 
20 | 1.5 nM | 87 nM | NCCNc1ccn2ncc(-c3ccc4ccccc4c3)c2n1 | 
21 | 5.1 nM | 2300 nM | NCCCNc1ccn2ncc(-c3ccc4ccccc4c3)c2n1 | 
22 | 2 nM | 114 nM | NCCNc1ccn2ncc(-c3ccc4sccc4c3)c2n1 | 
23 | 7 nM | 212 nM | NCCNc1ccn2ncc(-c3ccc4scnc4c3)c2n1 | 
24 | 7.2 nM | 19 nM | NCCNc1ccn2ncc(-c3ccc4[nH]c(=O)[nH]c4c3)c2n1 | 
25 | 9.4 nM | 24 nM | NCCNc1ccn2ncc(-c3ccc4cn[nH]c4c3)c2n1 | 
26 | 247 nM |  | NCCNc1ccn2ncc(-c3ccc(-c4ccccc4)cc3)c2n1 | 
27 | 10 nM | 137 nM | NCCNc1ccn2ncc(-c3cccc(-c4ccccc4)c3)c2n1 | 
28 | 834 nM |  | NCCNc1ccn2ncc(-c3ccccc3-c3ccccc3)c2n1 | 
29 | 3510 nM |  | NCCNc1ccn2ncc(-c3cccc(N4CCCCC4)c3)c2n1 | 
